Measured values taken from ChEMBL document CHEMBL3352151, “In vitro and in vivo antibacterial evaluation and mechanistic study of ornithine based small cationic lipopeptides against antibiotic resistant clinical isolates” (Eur J Med Chem, 2014).
In brackets after ≈: the same amount, converted by molar mass. Activity calls are given as the source filed them. The rule behind the calls is not given here.

Legend:
Staphylococcus aureus [1] = assay: Antibacterial activity against clinical isolates of Staphylococcus aureus PGI/DML03054 after overnight incubation by microdilution broth assay; assay type: functional
[2] = Toxicity in albino mouse assessed as mortality at 15 mg/kg, iv; assay type: organism-based; design: dose 15 mg/kg, route intravenous; conditions: in vivo
[3] = Toxicity in albino mouse assessed as mortality at 120 mg/kg, iv; assay type: organism-based; design: dose 120 mg/kg, route intravenous; conditions: in vivo
[4] = Toxicity in albino mouse assessed as mortality at 150 mg/kg, iv; assay type: organism-based; design: dose 150 mg/kg, route intravenous; conditions: in vivo
Escherichia coli [5] = assay: Antibacterial activity against clinical isolates of imipenem-resistant Escherichia coli PGI/DML02292 after overnight incubation by microdilution broth assay; assay type: functional
Klebsiella pneumoniae = assay: Antibacterial activity against clinical isolates of kanamycin-resistant Klebsiella pneumoniae GMCH/R-Kan006 after overnight incubation by microdilution broth assay; assay type: functional
Acinetobacter baumannii [6] = assay: Antibacterial activity against clinical isolates of Acinetobacter baumannii GMCH/B0083 after overnight incubation by microdilution broth assay; assay type: functional
Acinetobacter baumannii [7] = assay: Antibacterial activity against clinical isolates of imipenem-resistant Acinetobacter baumannii GMCH/R-Imi003 after overnight incubation by microdilution broth assay; assay type: functional
Staphylococcus aureus [8] = assay: Antibacterial activity against Staphylococcus aureus PGI/DML03149 infected in Swiss albino mouse assessed as log reduction at 1 mg/kg administered twice at 1 hr and 5 hrs post infection relative to control; assay type: functional
Escherichia coli [9] = assay: Antibacterial activity against Escherichia coli PGI/DML02292 infected in Swiss albino mouse assessed as log reduction at 5 mg/kg administered at 1 hr post infection relative to control; assay type: functional
Staphylococcus aureus [10] = assay: Antibacterial activity against Staphylococcus aureus PGI/DML03149 infected in Swiss albino mouse assessed as log reduction at 5 mg/kg administered twice at 1 hr and 5 hrs post infection relative to control; assay type: functional
Escherichia coli [11] = assay: Antibacterial activity against Escherichia coli PGI/DML02292 infected in Swiss albino mouse assessed as log reduction at 10 mg/kg administered at 1 hr post infection relative to control; assay type: functional
Staphylococcus aureus [12] = assay: Antibacterial activity against Staphylococcus aureus PGI/DML03149 infected in Swiss albino mouse assessed as log reduction at 10 mg/kg administered […] at 1 hr post infection relative to control; assay type: functional
[13] = Cytotoxicity against human HaCaT cells assessed as cell viability at 500 ug/ml after 18 hrs by MTT assay; assay type: cell-based; conditions: read-out: Activity
Escherichia coli [14] = assay: Bactericidal activity against clinical isolates of Escherichia coli PGI/DML02292 assessed as surface blebs at 4 times MIC after 30 mins by […] microscopy relative to control; assay type: functional, organism-based
Mus musculus = assay: Toxicity in albino mouse assessed as mortality latency at 60 mg/kg, iv; assay type: organism-based; design: dose 60 mg/kg, route intravenous; conditions: in vivo
[15] = Toxicity in albino mouse assessed as mortality at 1 mg/kg, iv; assay type: organism-based; design: dose 1 mg/kg, route intravenous; conditions: in vivo

Compound: CCCCCCCCCCCCCC(=O)NC(CCCN)C(=O)NC(CCCN)C(=O)NC(CCCN)C(N)=O (configuration not stated)
- MIC (Staphylococcus aureus [1]): 2.5 µg/mL (≈ 4.39 µM)
- mortality [2]: 0%
- mortality [3]: 75%
- mortality [4]: 85%
- MIC (Escherichia coli [5]): 5.5 µg/mL (≈ 9.65 µM)
- MIC (Klebsiella pneumoniae): 5.5 µg/mL (≈ 9.65 µM)
- MIC (Acinetobacter baumannii [6]): 2.5 µg/mL (≈ 4.39 µM)
- MIC (Acinetobacter baumannii [7]): 3.25 µg/mL (≈ 5.7 µM)
- FC (Staphylococcus aureus [8]): 0.84
- FC (Escherichia coli [9]): 3.68
- FC (Staphylococcus aureus [10]): 4.15
- FC (Escherichia coli [11]): 5.41
- FC (Staphylococcus aureus [12]): 4.59
- viability at 18 h, 500 ug/ml [13]: 25%
- Activity (Escherichia coli [14]): Active
- Time (Mus musculus): > 120 h
- mortality [15]: 0%
